Test results published in the supplement of paper PMC10307832.

How the values were obtained:
Assay in all cases: relative viability (nuclei count vs DMSO), 5 days (fraction); higher = more cells survive
[1] = compound: O=C1NC(=O)[C@@H](c2cn3c4c(cccc24)CCC3)[C@@H]1c1c[nH]c2ccccc12 [Tivantinib] + CCNC(=O)c1noc(-c2cc(C(C)C)c(O)cc2O)c1-c1ccc(CN2CCOCC2)cc1 [Luminespib] (partner 0.01 µM)
Outline: (§1)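 Values are medians from duplicate plates. Each reflects relative viability, defined as the nuclei count of treated wells over that of vehicle wells. Lung cancer cell lines in 1536-well plates were pin-tool dosed one day after seeding with one drug alone or with a fixed anchor-drug dose plus five library-drug doses (not always all listed) in √10 steps, then fixed, stained and imaged at 4× after 5 days.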

[2] = compound: CC1(COc2ccc3c(c2)ncn3-c2ccc3cccc(N4CCC(N)CC4)c3n2)COC1 [Crenolanib] + C[C@]1(O)C[C@@H](c2nc(-c3ccc4ccc(-c5ccccc5)nc4c3)c3c(N)nccn32)C1 [Linsitinib] (partner 1 µM)
Outline: as §1

[3] = compound: CC1(COc2ccc3c(c2)ncn3-c2ccc3cccc(N4CCC(N)CC4)c3n2)COC1 [Crenolanib] + COc1cccc2cc(-c3nc([C@H]4CC[C@H](C(=O)O)CC4)n4ncnc(N)c34)[nH]c12 [OSI-027] (partner 0.5 µM)
Outline: as §1

[4] = compound: CC1(COc2ccc3c(c2)ncn3-c2ccc3cccc(N4CCC(N)CC4)c3n2)COC1 [Crenolanib] + N=C(N)NC(=N)NCCc1ccccc1 [Phenformin] (partner 250 µM)
Outline: as §1

Row | Cell Line | relative viability ([1]; first compound 0.01 µM) | relative viability ([1]; first compound 0.03162 µM) | relative viability ([1]; first compound 0.1 µM) | relative viability ([1]; first compound 0.3162 µM) | relative viability ([2]; first compound 0.01 µM) | relative viability ([2]; first compound 0.03162 µM) | relative viability ([2]; first compound 0.1 µM) | relative viability ([2]; first compound 0.3162 µM) | relative viability ([2]; first compound 1 µM) | relative viability ([3]; first compound 0.01 µM) | relative viability ([3]; first compound 0.03162 µM) | relative viability ([3]; first compound 0.1 µM) | relative viability ([3]; first compound 0.3162 µM) | relative viability ([3]; first compound 1 µM) | relative viability ([4]; first compound 0.01 µM) | relative viability ([4]; first compound 0.03162 µM) | relative viability ([4]; first compound 0.1 µM) | relative viability ([4]; first compound 0.3162 µM) | relative viability ([4]; first compound 1 µM)
1 | NCI-H1563 | 0.52 | 0.517 | 0.478 | 0.534 | 1.12 | 1.3 | 1.18 | 1.23 | 1.06 | 0.768 | 0.807 | 0.764 | 0.752 | 0.748 | 0.615 | 0.66 | 0.699 | 0.607 | 0.672
2 | COR-L23 | 0.625 | 0.685 | 0.661 | 0.757 | 1.06 | 1.02 | 0.884 | 1.15 | 0.88 | 0.721 | 0.849 | 0.654 | 0.81 | 0.714 | 0.444 | 0.417 | 0.47 | 0.427 | 0.397
3 | ABC-1 | 0.43 | 0.944 | 0.339 | 0.675 | 0.79 | 0.797 | 0.946 | 1.19 | 1.04 | 0.526 | 0.536 | 0.522 | 0.531 | 0.45 | 0.21 | 0.265 | 0.22 | 0.261 | 0.257
4 | SW 900 | 0.191 | 0.177 | 0.162 | 0.145 | – | – | – | – | – | 0.677 | 0.575 | 0.46 | 0.657 | 0.342 | 0.81 | 0.697 | 0.55 | 0.416 | 0.585
5 | PC-14 | – | 0.152 | 0.152 | 0.15 | 1.07 | 0.93 | 1.03 | 1.05 | 0.93 | 0.883 | 0.776 | 0.764 | 0.816 | 0.617 | 0.628 | 0.46 | 0.544 | 0.473 | 0.314
6 | NCI-H1648 | – | – | – | – | – | – | – | – | – | 0.245 | 0.271 | 0.247 | 0.26 | 0.251 | – | – | – | – | –
7 | A549 | – | – | – | – | 0.674 | 0.598 | 0.529 | 0.69 | 0.533 | – | – | – | – | – | 0.193 | 0.185 | 0.165 | 0.103 | 0.145
8 | A-427 | 0.971 | 0.873 | 0.899 | 0.76 | 1.1 | 1.06 | 1.08 | 1.15 | 1.15 | 0.519 | 0.54 | 0.421 | 0.48 | 0.431 | 0.366 | 0.372 | 0.311 | 0.255 | 0.244
9 | NCI-H1915 | 0.883 | 0.775 | 0.722 | 0.765 | 1.13 | 1.13 | 1.07 | 1.09 | 1.06 | 0.583 | 0.646 | 0.592 | 0.634 | 0.417 | 0.359 | 0.37 | 0.365 | 0.386 | 0.398
10 | LOU-NH91 | 0.373 | 0.369 | 0.309 | 0.367 | 1.02 | 0.908 | 0.822 | 0.887 | 0.936 | 0.765 | 0.729 | 0.642 | 0.717 | 0.624 | 0.862 | 0.657 | 0.711 | 0.667 | 0.692
11 | NCI-H1734 | 0.206 | 0.198 | 0.0957 | 0.191 | 0.925 | 0.934 | 0.858 | 1.02 | 0.895 | 0.706 | 0.563 | 0.561 | 0.822 | 0.566 | 0.38 | 0.405 | 0.387 | 0.421 | 0.39
12 | LCLC-97TM1 | 0.773 | 0.788 | 0.673 | 0.764 | 0.18 | 0.222 | 0.185 | 0.186 | 0.184 | 0.601 | 0.51 | 0.469 | 0.667 | 0.374 | 0.476 | 0.477 | 0.457 | 0.455 | 0.455
13 | RERF-LC-KJ | 1.25 | 1.29 | 1.24 | 1.27 | 0.851 | 0.937 | 0.905 | 0.919 | 0.944 | 0.583 | 0.582 | 0.574 | 0.648 | 0.448 | 0.442 | 0.44 | 0.423 | 0.463 | 0.446
14 | BEN | 0.361 | 0.262 | 0.232 | 0.385 | 1.03 | 0.895 | 0.83 | 0.848 | 0.911 | 0.302 | 0.339 | 0.305 | 0.321 | 0.314 | 0.259 | 0.235 | 0.267 | 0.255 | 0.271
15 | NCI-H1703 | – | – | – | – | 0.566 | 0.645 | 0.574 | 0.285 | 0.154 | – | – | – | – | – | – | – | – | – | –
16 | ChaGo-K-1 | 0.679 | 0.539 | 0.576 | 0.597 | – | – | – | – | – | 0.659 | 0.634 | 0.572 | 0.631 | 0.594 | 0.533 | 0.495 | 0.536 | 0.42 | 0.497
17 | Calu-6 | – | – | – | – | 1.01 | 0.813 | 0.873 | 1.03 | 0.936 | – | – | – | – | – | – | – | – | – | –
18 | NCI-H2342 | 0.741 | 0.739 | 0.716 | 0.598 | – | – | – | – | – | 0.704 | 0.599 | 0.592 | 0.726 | 0.594 | 0.724 | 0.525 | 0.556 | 0.652 | 0.64
19 | EBC-1 | – | – | – | – | 0.946 | 0.832 | 0.85 | 0.978 | 0.996 | – | – | – | – | – | – | – | – | – | –
20 | NCI-H522 | 1.33 | 0.989 | 0.93 | 0.685 | – | – | – | – | – | 0.936 | 0.708 | 0.728 | 0.655 | 0.72 | 0.706 | 0.641 | 0.756 | 0.656 | 0.675
21 | NCI-H2170 | 0.527 | 0.594 | 0.672 | – | – | – | – | – | – | 0.82 | 0.744 | 0.706 | 0.828 | 0.669 | 0.467 | 0.41 | 0.387 | 0.326 | 0.387
22 | NCI-H1299 | – | – | – | – | 0.995 | 0.912 | 0.946 | 1.01 | 0.958 | – | – | – | – | – | – | – | – | – | –
23 | IA-LM | – | – | – | – | 0.717 | 0.558 | 0.605 | 0.841 | 0.834 | – | – | – | – | – | – | – | – | – | –
